In brackets after ≈: the same amount, converted by molar mass.
Legend:
[1] = test system: Escherichia coli NCTC 9001; assay: Broth microdilution MIC, E. coli; assay type: cell-based; details: Escherichia coli, NCTC9001; E. coli NCTC 9001; Luria-Bertani broth, 24 h, 37°C; read-out: MIC
Description: (§1) Minimal inhibitory concentration (MIC) values against Pseudomonas aeruginosa PA01, Staphylococcus aureus ATCC 43300, Salmonella enteritidis ATCC 13075, Salmonella pullorum ATCC 13036, Escherichia coli NCTC 9001, Listeria monocytogenes NCTC 11994, and Enterococcus faecalis ATCC 29212 were determined in Luria-Bertani broth (10.0 g/L tryptone, 10.0 g/L NaCl, 5.0 g/L yeast extract, pH 7.2) in accordance with the standard broth microdilution assay for bacteria that grow aerobically, as recommended by the CLSI (Clinical and Laboratory Standards Institute, Methods for Dilution Antimicrobial Susceptibility Tests for Bacteria That Grow Aerobically; Approved Standard—Tenth Edition M07-A10. CLSI). The highest tested concentration was 500 μg/mL, and the inocula were 1^·10^6 cfu/mL.

[2] = test system: Pseudomonas aeruginosa PAO1; assay: Broth microdilution MIC, P. aeruginosa; assay type: cell-based; details: Pseudomonas aeruginosa; P. aeruginosa PAO1; Luria-Bertani broth, 24 h, 37°C; read-out: MIC
Description: as §1

[3] = test system: Listeria monocytogenes NCTC 11994; assay: Broth microdilution MIC, L. monocytogenes; assay type: cell-based; details: Listeria monocytogenes, NCTC11994; L. monocytogenes NCTC 11994; Luria-Bertani broth, 24 h, 37°C; read-out: MIC
Description: as §1

[4] = test system: Staphylococcus aureus ATCC 43300; assay: Broth microdilution MIC, S. aureus; assay type: cell-based; details: Staphylococcus aureus, ATCC43300; S. aureus ATCC 43300; Luria-Bertani broth, 24 h, 37°C; read-out: MIC
Description: as §1

[5] = test system: Enterococcus faecalis ATCC 29212; assay: Broth microdilution MIC, E. faecalis; assay type: cell-based; details: Enterococcus faecalis, ATCC29212; E. faecalis ATCC 29212; Luria-Bertani broth, 24 h, 37°C; read-out: MIC
Description: as §1

[6] = test system: Salmonella enteritidis ATCC 13075; assay: Broth microdilution MIC, S. enteritidis; assay type: cell-based; details: Salmonella enterica; S. enteritidis ATCC 13075; Luria-Bertani broth, 24 h, 37°C; read-out: MIC
Description: as §1

[7] = test system: Salmonella pullorum ATCC 13036; assay: Broth microdilution MIC, S. pullorum; assay type: cell-based; details: Salmonella enterica; S. pullorum ATCC 13036; Luria-Bertani broth, 24 h, 37°C; read-out: MIC
Description: as §1

[8] = test system: C. albicans ATCC 10231; assay: Broth microdilution MIC, C. albicans; assay type: cell-based, Candida albicans; details: Candida albicans, ATCC10231; C. albicans ATCC 10231; RPMI 1640 with 2% glucose; read-out: MIC
Description: (§2) Stock solutions of bpa, bpe, and silver(I) complexes 1–3 were prepared fresh in DMSO (50 mg/mL) and kept at 4°C prior to use. Susceptibility testing of Candida spp. (C. albicans ATCC 10231, C. krusei ATCC 6258, C. parapsilosis ATCC 22019, and C. glabrata ATCC 2001) was performed according to CLSI broth microdilution guidelines (Clinical and Laboratory Standards Institute, Reference Method for Broth Dilution Antifungal Susceptibility Testing of Yeasts—Third Edition: Approved Standard M27-A3; Clinical and Laboratory Standards Institute, Reference Method for Broth Dilution Antifungal Susceptibility Testing of Yeasts: Fourth Informational Supplement M27-S4), in RPMI 1640 medium (Roswell Park Memorial Institute medium) containing 2% glucose (w/v). The highest tested concentration was 500 μg/mL, and the inocula were 1^·\10^5 colony forming units (cfu)/mL.

[9] = test system: C. parapsilosis ATCC 22019; assay: Broth microdilution MIC, C. parapsilosis; assay type: cell-based, Candida parapsilosis; details: Lodderomyces parapsilosis, ATCC22019; C. parapsilosis ATCC 22019; RPMI 1640 with 2% glucose; read-out: MIC
Description: as §2

[10] = test system: C. glabrata ATCC 2001; assay: Broth microdilution MIC, C. glabrata; assay type: cell-based, Candida glabrata; details: Nakaseomyces glabratus, ATCC2001; C. glabrata ATCC 2001; RPMI 1640 with 2% glucose; read-out: MIC
Description: as §2

[11] = test system: C. krusei ATCC 6258; assay: Broth microdilution MIC, C. krusei; assay type: cell-based, Candida krusei; details: Pichia kudriavzevii, ATCC6258; C. krusei ATCC 6258; RPMI 1640 with 2% glucose; read-out: MIC
Description: as §2

[12] = MTT assay on a human fibroblast cell line; assay type: cell-based; details: human, MRC-5 human lung fibroblast cells, MRC-5, MTT, read-out: IC50 (cytotoxic effect on MRC-5 cells)
Description: Antiproliferative activity was tested by 3-(4,5-dimethylthiazol-2-yl)-2,5-diphenyltetrazolium bromide (MTT) assay on a human lung fibroblast cell line (MRC-5; ATCC collection). Pregrown (24 h) cell monolayers were incubated in the media containing the tested compounds at concentrations ranging from 5 to 500 μg/mL and the cell viability was measured after 48 h. RPMI 1640 medium supplemented with 100 μg/mL streptomycin, 100 U/mL penicillin, and 10% (v/v) FBS (all from Sigma, Munich, Germany) was used for the cultivation of MRC-5 cell line. Cells were maintained as a monolayer (1^·10^4 cells per well) in RPMI 1640 and grown in a humidified atmosphere of 95% air and 5% CO2 at 37°C. The extent of MTT reduction was measured spectrophotometrically at 540 nm using Tecan Infinite 200 Pro multiplate reader (Tecan Group Ltd, Männedorf, Switzerland), and the cell survival was expressed as a percentage of the control (untreated cells). Cytotoxicity was expressed as the concentration of the compound inhibiting cell growth by 50% (IC50).

[13] = test system: investigated bacterial strains; assay: Broth microdilution MIC, panel of bacterial strains; assay type: cell-based
Description: as §1

[14] = test system: calf thymus DNA (ctDNA); details: proven DNA intercalator; cited from earlier work

Row | Structure (SMILES) | MIC [1] [µg/mL] | MIC [2] [µg/mL] | MIC [3] [µg/mL] | MIC [4] [µg/mL] | MIC [5] [µg/mL] | MIC [6] [µg/mL] | MIC [7] [µg/mL] | MIC [8] [µg/mL] | MIC [9] [µg/mL] | MIC [10] [µg/mL] | MIC [11] [µg/mL] | IC50 at 48 h [12] [µg/mL] | MIC / antibacterial activity [13] | Hypochromism [14] [%]
1 | C(=Cc1ccncc1)c1ccncc1 [bpe, 1,2-bis(4-pyridyl)ethene, reference compound] | 250 (≈ 1370 µM) | 500 (≈ 2740 µM) | 100 (≈ 549 µM) | > 500 | > 500 | > 500 | > 500 | 200 (≈ 1100 µM) | 125 (≈ 686 µM) | 100 (≈ 549 µM) | 200 (≈ 1100 µM) | 220 (≈ 1210 µM) | not significant | –
2 | C[n+]1c2ccccc2c(-c2c3ccccc3[n+](C)c3ccccc23)c2ccccc21 [lucigenin] | – | – | – | – | – | – | – | – | – | – | – | – | – | 50

From publication PMC7178511, “Antimicrobial Activity and DNA/BSA Binding Affinity of Polynuclear Silver(I) Complexes with 1,2-Bis(4-pyridyl)ethane/ethene as Bridging Ligands” (Bioinorganic Chemistry and Applications, 2020)
